# Reference: ChEMBL document CHEMBL1201862, “PubChem BioAssay data set” (2004)
#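 Compound exposure: 48 hours, 5 concentrations, 96-well plates. The concentration for 50% growth inhibition is given as GI50.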 The source made the active and inactive calls. Rule as the data show it: active = GI50 up to about 1.1 µM and inactive = higher.
# Tests used:
# Experiment in all cases: NCI tumour cell line growth inhibition, 48 h
# Hs-578T = system: Hs-578T
# OVCAR-8 = system: OVCAR-8
# UO-31 = system: UO-31
# MOLT-4 = system: MOLT-4
# A498 = system: A498
# SN12C = system: SN12C
# SR = system: SR
# SK-OV-3 = system: SK-OV-3
# MDA-MB-435 = system: MDA-MB-435
# OVCAR-4 = system: OVCAR-4
# RXF 393 = system: RXF 393
# ACHN = system: ACHN
# M14 = system: M14
# U-251 = system: U-251
# HCC 2998 = system: HCC 2998
# KM12 = system: KM12
# CCRF-CEM = system: CCRF-CEM
# OVCAR-5 = system: OVCAR-5
# SK-MEL-2 = system: SK-MEL-2
SMILES,GI50 (Hs-578T),GI50 (OVCAR-8),GI50 (UO-31),GI50 (MOLT-4),GI50 (A498),GI50 (SN12C),GI50 (SR),GI50 (SK-OV-3),GI50 (MDA-MB-435),GI50 (OVCAR-4),GI50 (RXF 393),GI50 (ACHN),GI50 (M14),GI50 (U-251),GI50 (HCC 2998),GI50 (KM12),GI50 (CCRF-CEM),GI50 (OVCAR-5),GI50 (SK-MEL-2)
CCCCc1ccc(C#CC#Cc2ccc(CCCC)s2)s1,> 100 µM (inactive),> 100 µM (inactive),> 100 µM (inactive),> 100 µM (inactive),> 100 µM (inactive),> 100 µM (inactive),> 100 µM (inactive),> 100 µM (inactive),> 100 µM (inactive),> 100 µM (inactive),> 100 µM (inactive),> 100 µM (inactive),> 100 µM (inactive),> 100 µM (inactive),> 100 µM (inactive),> 100 µM (inactive),4.39 µM (inactive),> 100 µM (inactive),
CC1OC(n2cnc3c(N)nc(Cl)nc32)C(C)(O)C1O (configuration not stated),> 25 µM (inactive),19.8 µM (inactive),16.7 µM (inactive),> 25 µM (inactive),> 25 µM (inactive),> 25 µM (inactive),> 25 µM (inactive),> 25 µM (inactive),> 25 µM (inactive),> 25 µM (inactive),> 25 µM (inactive),> 25 µM (inactive),> 25 µM (inactive),,> 25 µM (inactive),> 25 µM (inactive),> 25 µM (inactive),> 25 µM (inactive),> 25 µM (inactive)
CCC(c1ccccc1)c1cc(C(C)(C)C)cc(C(C)(C)C)c1O (configuration not stated),16.3 µM (inactive),17.3 µM (inactive),18.4 µM (inactive),,19.7 µM (inactive),17.3 µM (inactive),31.7 µM (inactive),14.9 µM (inactive),18.2 µM (inactive),15.8 µM (inactive),20 µM (inactive),18.6 µM (inactive),18.6 µM (inactive),17.7 µM (inactive),15.8 µM (inactive),18.4 µM (inactive),,13.7 µM (inactive),15.7 µM (inactive)
CCCCCCCCCCCCCCCCC(=O)NCC(=O)NCC(=O)NC(Cc1ccccc1)C(=O)Oc1ccc([N+](=O)[O-])cc1 (configuration not stated),> 100 µM (inactive),19.2 µM (inactive),67.9 µM (inactive),16.4 µM (inactive),> 100 µM (inactive),19.7 µM (inactive),25 µM (inactive),,58.5 µM (inactive),> 100 µM (inactive),23.4 µM (inactive),> 100 µM (inactive),21.4 µM (inactive),18.4 µM (inactive),17.7 µM (inactive),22.7 µM (inactive),22 µM (inactive),27.5 µM (inactive),48.4 µM (inactive)
Cc1c(/C=N\NC(=S)N2CCN(C(=S)N/N=C\c3c(C)n(C)n(-c4ccccc4)c3=O)CC2)c(=O)n(-c2ccccc2)n1C,33 µM (inactive),,> 100 µM (inactive),37.4 µM (inactive),65.3 µM (inactive),,47.9 µM (inactive),> 100 µM (inactive),4.52 µM (inactive),> 100 µM (inactive),67.9 µM (inactive),21.2 µM (inactive),57 µM (inactive),29.1 µM (inactive),45.4 µM (inactive),69.7 µM (inactive),,> 100 µM (inactive),13.1 µM (inactive)
CCOC(=O)c1c(NC(=O)OC)c(C#N)c2n1CCCCC2,> 100 µM (inactive),> 100 µM (inactive),> 100 µM (inactive),45.1 µM (inactive),> 100 µM (inactive),,> 100 µM (inactive),> 100 µM (inactive),> 100 µM (inactive),> 100 µM (inactive),> 100 µM (inactive),> 100 µM (inactive),> 100 µM (inactive),> 100 µM (inactive),> 100 µM (inactive),> 100 µM (inactive),> 100 µM (inactive),,> 100 µM (inactive)
CCCCCCC(=O)c1ccc2ccccc2c1O,56 µM (inactive),41.7 µM (inactive),47.6 µM (inactive),20.3 µM (inactive),0.318 µM (active),,33.3 µM (inactive),52.4 µM (inactive),69.2 µM (inactive),> 100 µM (inactive),25.1 µM (inactive),54 µM (inactive),58.3 µM (inactive),> 100 µM (inactive),> 100 µM (inactive),31 µM (inactive),33.1 µM (inactive),,23.8 µM (inactive)
CC1(C#N)CC(C)(C)C(/C=C2/CC(C)(C)C(/C=C3/OC(=N)CC3(C)C)=N2)=N1 (configuration not stated),19.2 µM (inactive),22.9 µM (inactive),,28.7 µM (inactive),10.5 µM (inactive),31.9 µM (inactive),28.5 µM (inactive),20.4 µM (inactive),21.7 µM (inactive),20 µM (inactive),15.2 µM (inactive),21.3 µM (inactive),28.9 µM (inactive),38.5 µM (inactive),32.2 µM (inactive),24.2 µM (inactive),32.4 µM (inactive),80.4 µM (inactive),38.7 µM (inactive)
CC(=O)N(C(=O)CC(=O)N/N=C\c1ccc(Br)c(N(CCC#N)CCC#N)c1)c1ccc(Cl)cc1,52.5 µM (inactive),54.5 µM (inactive),24.8 µM (inactive),42.6 µM (inactive),33.4 µM (inactive),7 µM (inactive),44.2 µM (inactive),49.7 µM (inactive),27.5 µM (inactive),,> 100 µM (inactive),14.5 µM (inactive),34.5 µM (inactive),46.3 µM (inactive),31 µM (inactive),14.1 µM (inactive),> 100 µM (inactive),11.8 µM (inactive),
O=C1CCCC1C(O)(C(F)(F)F)C(F)(F)F (configuration not stated),> 100 µM (inactive),> 100 µM (inactive),> 100 µM (inactive),> 100 µM (inactive),> 100 µM (inactive),> 100 µM (inactive),> 100 µM (inactive),,> 100 µM (inactive),> 100 µM (inactive),> 100 µM (inactive),> 100 µM (inactive),> 100 µM (inactive),> 100 µM (inactive),> 100 µM (inactive),> 100 µM (inactive),> 100 µM (inactive),> 100 µM (inactive),> 100 µM (inactive)
COc1ccccc1-c1cc(=O)c2ccc(OC)c(OC)c2o1,41.7 µM (inactive),54.6 µM (inactive),30.2 µM (inactive),60.4 µM (inactive),37.8 µM (inactive),63.1 µM (inactive),> 100 µM (inactive),66.7 µM (inactive),46 µM (inactive),38.4 µM (inactive),27.1 µM (inactive),39.4 µM (inactive),64.3 µM (inactive),46.1 µM (inactive),52.8 µM (inactive),,> 100 µM (inactive),> 100 µM (inactive),70.6 µM (inactive)
